Assay results: patent US20090239841A1, “Diaryl Ureas as CB1 Antagonists” (priority 2004, published 2009)

Target: T1, hCB1 (Homo sapiens, UniProt P21554)
T1 construct: made in house; host or cells: Sf9 insect cells (baculovirus), P2 membranes
Test: Agonist-induced GTP binding (GTPγ35S) assay at CB1, Example 8
Type: biochemical
Conditions: IC50 at CB1, determined as described in Example 8; read-out: IC50
Method in brief: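 Membranes from Sf9 cells co-expressing hCB1 and heterotrimeric G-protein (10 μg protein) in Tris pH 7.4 buffer with 5 μM GDP. Test compounds (10^−10–10^−5 M) competed against 1 nM CP55,940 with […] GTPγ35S, 60 min at room temperature. Filter-bound radioactivity by scintillation, expressed as percent above basal.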

T1 sequence (P21554 whole entry): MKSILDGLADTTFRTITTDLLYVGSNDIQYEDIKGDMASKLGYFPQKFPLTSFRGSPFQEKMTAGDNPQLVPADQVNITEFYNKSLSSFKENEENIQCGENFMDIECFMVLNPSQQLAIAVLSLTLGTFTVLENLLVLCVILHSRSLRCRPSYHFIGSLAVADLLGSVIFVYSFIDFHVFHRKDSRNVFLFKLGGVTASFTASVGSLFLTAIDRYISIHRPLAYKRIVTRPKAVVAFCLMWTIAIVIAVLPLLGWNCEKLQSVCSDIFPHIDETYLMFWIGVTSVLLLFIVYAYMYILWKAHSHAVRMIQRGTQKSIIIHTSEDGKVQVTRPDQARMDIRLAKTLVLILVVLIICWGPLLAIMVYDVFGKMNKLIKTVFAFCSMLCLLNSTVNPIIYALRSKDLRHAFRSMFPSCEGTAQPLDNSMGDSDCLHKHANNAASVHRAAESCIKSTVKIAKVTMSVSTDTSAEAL

SMILES	IC50
CCOc1ccc(NC(=O)Nc2ccc(C#N)cc2)cc1 [Compound 411, 1-(4-cyanophenyl)-3-(4-ethoxyphenyl)urea]	< 2000 nM
CCOc1ccc(NC(=O)Nc2ccc(Cl)cc2)cc1 [Compound 390, 1-(4-chlorophenyl)-3-(4-ethoxyphenyl)urea]	< 2000 nM
Cc1ccc(NC(=O)Nc2ccc(CC#N)cc2)cc1 [Compound 460, 1-[4-(cyanomethyl)phenyl]-3-(4-methylphenyl)urea]	< 2000 nM
CCOC(=O)c1cccc(NC(=O)Nc2ccc(C(=O)CC)cc2)c1 [Compound 721, ethyl 3-({[(4-propionylphenyl)amino]carbonyl}amino)benzoate]	< 2000 nM
CCOc1cccc(NC(=O)Nc2ccc(CC)cc2)c1 [Compound 385, 1-(3-ethoxyphenyl)-3-(4-ethylphenyl)urea]	< 2000 nM
CCC(=O)c1ccc(NC(=O)Nc2ccc(F)c(C)c2)cc1 [Compound 735, 1-(4-fluoro-3-methylphenyl)-3-(4-propionylphenyl)urea]	< 2000 nM
CCC(=O)c1ccc(NC(=O)Nc2cccc(CC)c2)cc1 [Compound 491, 1-(3-ethylphenyl)-3-(4-propionylphenyl)urea]	< 2000 nM

Results, then the compound that gave them:

IC50	SMILES
< 2000 nM	Cc1ccc(NC(=O)Nc2ccc(C(=O)OC(C)C)cc2)cc1F [Compound 740, isopropyl 4-({[(3-fluoro-4-methylphenyl)amino]carbonyl}amino)benzoate]
< 2000 nM	Cc1ccc(F)cc1NC(=O)Nc1cccc(OC(F)F)c1 [Compound 700, 1-[3-(difluoromethoxy)phenyl]-3-(5-fluoro-2-methylphenyl)urea]
< 2000 nM	Cc1ccc(NC(=O)Nc2ccc(C)c(F)c2)cc1F [Compound 772, 1,3-bis(3-fluoro-4-methylphenyl)urea]
< 2000 nM	CCc1ccc(NC(=O)Nc2ccc(C)c(Cl)c2)cc1 [Compound 444, 1-(3-chloro-4-methylphenyl)-3-(4-ethylphenyl)urea]
< 2000 nM	Cc1ccc(NC(=O)Nc2ccc(C)c(Cl)c2)cc1F [Compound 776, 1-(3-chloro-4-methylphenyl)-3-(3-fluoro-4-methylphenyl)urea]
< 2000 nM	Cc1ccc(NC(=O)Nc2ccc(F)c(F)c2)cc1Cl [Compound 777, 1-(3-chloro-4-methylphenyl)-3-(3,4-difluorophenyl)urea]
< 2000 nM	CCCOc1ccc(NC(=O)Nc2ccc(OC)cc2)cc1 [Compound 547, 1-(4-methoxyphenyl)-3-(4-propoxyphenyl)urea]
< 2000 nM	Cc1ccc(F)c(NC(=O)Nc2cccc(OC(F)F)c2)c1 [Compound 699, 1-[3-(difluoromethoxy)phenyl]-3-(2-fluoro-5-methylphenyl)urea]
< 2000 nM	COc1ccc(NC(=O)Nc2ccc3c(c2)CCC3)cc1 [Compound 620, 1-(2,3-dihydro-1H-inden-5-yl)-3-(4-methoxyphenyl)urea]
< 2000 nM	CCOC(=O)c1cccc(NC(=O)Nc2ccc(F)c(F)c2)c1 [Compound 768, ethyl 3-({[(3,4-difluorophenyl)amino]carbonyl}amino)benzoate]
< 2000 nM	CCCOc1ccc(NC(=O)Nc2ccccc2)cc1 [Compound 303, N-phenyl-N′-(4-propoxyphenyl)urea]
< 2000 nM	CCc1ccc(NC(=O)Nc2ccc3c(c2)CCC3)cc1 [Compound 442, 1-(2,3-dihydro-1H-inden-5-yl)-3-(4-ethylphenyl)urea]
< 2000 nM	CCc1ccc(NC(=O)Nc2ccc(F)c(C)c2)cc1 [Compound 440, 1-(4-ethylphenyl)-3-(4-fluoro-3-methylphenyl)urea]
< 2000 nM	CCCc1ccc(NC(=O)Nc2cccc(C)c2)cc1 [Compound 292, 1-(3-methylphenyl)-3-(4-propylphenyl)urea]
< 2000 nM	CCOc1cccc(NC(=O)Nc2ccc([N+](=O)[O-])cc2)c1 [Compound 558, 1-(3-ethoxyphenyl)-3-(4-nitrophenyl)urea]
< 2000 nM	CCc1cccc(NC(=O)Nc2ccc(COC)cc2)c1 [Compound 392, 1-(3-ethylphenyl)-3-[4-(methoxymethyl)phenyl]urea]

IC50	SMILES
< 2000 nM	CCCc1ccc(NC(=O)Nc2ccc(C(=O)OCC)cc2)cc1 [Compound 653, ethyl 4-({[(4-propylphenyl)amino]carbonyl}amino)benzoate]
< 2000 nM	CCc1cccc(NC(=O)Nc2ccc(C)c(F)c2)c1 [Compound 438, 1-(3-ethylphenyl)-3-(3-fluoro-4-methylphenyl)urea]
< 2000 nM	CCCOc1ccc(NC(=O)Nc2cc(C)cc(C)c2)cc1 [Compound 706, 1-(3,5-dimethylphenyl)-3-(4-propoxyphenyl)urea]
< 2000 nM	O=C(Nc1ccc(S(=O)(=O)N2CCNCC2)cc1)Nc1cccc(OC(F)F)c1 [Compound 789, N-[3-(difluoromethoxy)phenyl]-N′-[4-(1-piperazinylsulfonyl)phenyl]urea]
< 2000 nM	CCOC(=O)c1cccc(NC(=O)Nc2ccc(COC)cc2)c1 [Compound 669, ethyl 3-[({[4-(methoxymethyl)phenyl]amino}carbonyl)amino]benzoate]
< 2000 nM	N#Cc1ccc(NC(=O)Nc2ccc3c(c2)CCC3)cc1 [Compound 453, 1-(4-cyanophenyl)-3-(2,3-dihydro-1H-inden-5-yl)urea]
< 2000 nM	Cc1ccc(NC(=O)Nc2ccc(CC#N)cc2)cc1F [Compound 727, 1-[4-(cyanomethyl)phenyl]-3-(3-fluoro-4-methylphenyl)urea]
< 2000 nM	CC(=O)c1cccc(NC(=O)Nc2ccc(OC(C)C)cc2)c1 [Compound 423, 1-(3-acetylphenyl)-3-(4-isopropoxyphenyl)urea]
< 2000 nM	CCC(=O)c1ccc(NC(=O)Nc2ccc(C)c(F)c2)cc1 [Compound 734, 1-(3-fluoro-4-methylphenyl)-3-(4-propionylphenyl)urea]
< 2000 nM	COCc1ccc(NC(=O)Nc2ccc(C)c(C)c2)cc1 [Compound 684, 1-(3,4-dimethylphenyl)-3-[4-(methoxymethyl)phenyl]urea]
< 2000 nM	Cc1ccc(NC(=O)Nc2ccc([N+](=O)[O-])cc2)cc1 [Compound 463, 1-(4-methylphenyl)-3-(4-nitrophenyl)urea]
< 2000 nM	CCc1ccc(NC(=O)Nc2cc(C)ccn2)cc1 [Compound 640, 1-(4-ethylphenyl)-3-(4-methylpyridin-2-yl)urea]
< 2000 nM	Cc1ccc(NC(=O)Nc2ccc(OC(C)C)cc2)cc1 [Compound 366, 1-(4-isopropoxyphenyl)-3-(4-methylphenyl)urea]
< 2000 nM	Cc1ccc(NC(=O)Nc2ccc(CC#N)cc2)cc1C [Compound 726, 1-[4-(cyanomethyl)phenyl]-3-(3,4-dimethylphenyl)urea]
< 2000 nM	CCOC(=O)c1cccc(NC(=O)Nc2ccc(Cl)cc2)c1 [Compound 648, ethyl 3-({[(4-chlorophenyl)amino]carbonyl}amino)benzoate]
< 2000 nM	CC(C)Oc1cccc(NC(=O)Nc2ccc(F)cc2)c1 [Compound 364, 1-(4-fluorophenyl)-3-(3-isopropoxyphenyl)urea]

Same assay, conditions: Table I; IC50 at CB1, GTP binding with 1 nM CP55,940; read-out: IC50

IC50	SMILES
< 2000 nM	CCc1ccc(NC(=O)Nc2cccc(C#N)c2)cc1 [Compound 55, N-(3-cyanophenyl)-N′-(4-ethylphenyl)urea]
< 2000 nM	Cc1ccc(NC(=O)Nc2ccc(Cl)cc2)cc1 [Compound 43, N-(4-chlorophenyl)-N′-(4-methylphenyl)urea]
< 2000 nM	O=C(Nc1ccc(OC(F)F)cc1)Nc1cccc(O)c1 [Compound 17, N-[4-(difluoromethoxy)phenyl]-N′-(3-hydroxyphenyl)urea]

Same assay, conditions: Table II; IC50 at CB1, GTP binding with 1 nM CP55,940; read-out: IC50

IC50	SMILES
< 2000 nM	COC(=O)c1ccc(NC(=O)Nc2ccc(OC(F)F)cc2)cc1OC [Compound 134, methyl 4-[({[4-(difluoromethoxy)phenyl]amino}carbonyl)amino]-2-methoxybenzoate]
< 2000 nM	CCOc1ccc(NC(=O)Nc2ccc(Cl)cc2)cc1 [Compound 237, N-(4-chlorophenyl)-N′-(4-ethoxyphenyl)urea]
< 2000 nM	O=C(Nc1ccc(OC(F)F)cc1)Nc1cc(OC(F)F)ncn1 [Compound 137, N-[4-(difluoromethoxy)phenyl]-N′-[6-(difluoromethoxy)pyrimidin-4-yl]urea]
< 2000 nM	Cc1ccc(NC(=O)Nc2ccc(-n3cnc(Cl)c3Cl)cc2)cc1 [Compound 166, N-[4-(4,5-dichloro-1H-imidazol-1-yl)phenyl]-N′-(4-methylphenyl)urea]
< 2000 nM	CC(C)Oc1ccc(NC(=O)Nc2ccc(Cl)cc2)cc1 [Compound 252, N-(4-chlorophenyl)-N′-(4-isopropoxyphenyl)urea]
< 2000 nM	CCOc1cccc(NC(=O)Nc2ccccc2)c1 [Compound 222, N-(3-ethoxyphenyl)-N′-phenylurea]
< 2000 nM	CCCc1ccc(NC(=O)Nc2ccc(Cl)cc2)cc1 [Compound 185, N-(4-chlorophenyl)-N′-(4-propylphenyl)urea]
< 2000 nM	CCc1cccc(NC(=O)Nc2cccc(OC(C)C)c2)c1 [Compound 246, N-(3-ethylphenyl)-N′-(3-isopropoxyphenyl)urea]
< 2000 nM	COc1ncc(C(F)(F)F)c(-c2cccc(NC(=O)Nc3ccc(OC(F)F)cc3)c2)n1 [Compound 119, N-[4-(difluoromethoxy)phenyl]-N′-{3-[2-methoxy-5-(trifluoromethyl)pyrimidin-4-yl]phenyl}urea]
< 2000 nM	CCCc1ccc(NC(=O)Nc2cccc(C(C)=O)c2)cc1 [Compound 199, N-(3-acetylphenyl)-N′-(4-propylphenyl)urea]
< 2000 nM	O=C(Nc1ccc(OC(F)F)cc1)Nc1ccc2ncccc2c1 [Compound 129, N-[4-(difluoromethoxy)phenyl]-N′-quinolin-6-ylurea]
< 2000 nM	Cc1ccc(NC(=O)Nc2ccc(OC(F)F)cc2)cc1C [Compound 90, N-[4-(difluoromethoxy)phenyl]-N′-(3,4-dimethylphenyl)urea]
